Values of other authors in US20130130306A1, “ZN (II) BASED COLORIMETRIC SENSOR AND PROCESS FOR THE PREPARATION THEREOF” (COUNCIL OF SCIENTIFIC & INDUSTRIAL RESEARCH, priority 2010, published 2013).

Test system: living microbes (eukaryotes and prokaryotes)
Conditions: drug carrier, general knowledge; cited from earlier work

Compound: OC[C@H]1O[C@@H]2O[C@H]3[C@H](O)[C@@H](O)[C@@H](O[C@H]4[C@H](O)[C@@H](O)[C@@H](O[C@H]5[C@H](O)[C@@H](O)[C@@H](O[C@H]6[C@H](O)[C@@H](O)[C@@H](O[C@H]7[C@H](O)[C@@H](O)[C@@H](O[C@H]1[C@H](O)[C@H]2O)O[C@@H]7CO)O[C@@H]6CO)O[C@@H]5CO)O[C@@H]4CO)O[C@@H]3CO [α-CD, α-cyclodextrin]
- toxicity to the living cell (known): completely non-toxic
